pIC50: −log10 of the molar value.

In this assay the target is T1, recombinant full-length human prolyl endopeptidase (PREP) (Homo sapiens, UniProt P48147).
T1 construct: To recombinant full-length human prolyl endopeptidase (PREP, R&D-Systems, 4308-SE); purchased R&D-Systems 4308-SE
T1 sequence (P48147 1-710): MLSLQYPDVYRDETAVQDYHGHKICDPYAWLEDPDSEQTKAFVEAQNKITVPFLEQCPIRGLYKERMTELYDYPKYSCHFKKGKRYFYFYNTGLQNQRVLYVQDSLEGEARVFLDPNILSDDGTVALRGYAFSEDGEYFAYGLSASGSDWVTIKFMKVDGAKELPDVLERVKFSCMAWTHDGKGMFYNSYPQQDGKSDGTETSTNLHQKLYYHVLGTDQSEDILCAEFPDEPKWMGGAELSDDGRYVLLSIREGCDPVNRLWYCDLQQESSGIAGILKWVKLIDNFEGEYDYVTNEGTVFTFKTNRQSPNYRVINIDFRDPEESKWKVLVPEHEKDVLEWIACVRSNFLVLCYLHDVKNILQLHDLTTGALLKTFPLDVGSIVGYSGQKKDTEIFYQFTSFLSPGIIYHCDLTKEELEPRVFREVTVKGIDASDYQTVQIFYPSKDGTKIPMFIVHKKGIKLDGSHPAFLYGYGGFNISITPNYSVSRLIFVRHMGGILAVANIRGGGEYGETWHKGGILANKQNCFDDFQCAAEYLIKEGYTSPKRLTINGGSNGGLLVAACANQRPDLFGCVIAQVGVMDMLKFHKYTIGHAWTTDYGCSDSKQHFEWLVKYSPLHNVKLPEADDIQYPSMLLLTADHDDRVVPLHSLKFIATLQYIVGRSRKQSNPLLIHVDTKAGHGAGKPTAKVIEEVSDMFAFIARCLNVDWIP
Kind of assay: Biochemical human prolyl endopeptidase (PREP) assay with fluorescently labelled substrate. As to conditions: substrate Z-Gly-Pro-AMC 50 μM, 32° C., 60 min; some as mean values from multiple independent determinations. In a few lines: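 0.4 nM (final, example) recombinant PREP in pH 7.5 Tris buffer with EDTA, GSH, BSA and Brij-35; compounds at 1 nM to 30 μM. Reaction started with 50 μM Z-Gly-Pro-AMC and followed by fluorescence (ex 360/em 465 nm) at 32° C for 60 min. IC50 interpolated from percent activity based on initial slopes.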
As to `O=C([C@@H]1CCCc2nn(Cc3ccc(F)cc3Cl)c(=O)n21)N1CCC(F)(F)C1` [Example 477, (5S)-2-(2-Chloro-4-fluorobenzyl)-5-[(3,3-difluoropyrrolidin-1-yl)carbonyl]-5,6,7,8-tetrahydro[1,2,4]triazolo[4,3-a]pyridin-3(2H)-one], the negative logarithm of the IC50 (pIC50) is 9.68.
In the case of `O=C([C@@H]1CCCc2nn(Cc3ccc(Cl)nc3)c(=O)n21)N1CC(F)C(F)C1` (single isomer, unassigned) [Example 551] it was 6.32; in that of `Cc1ccc(C2(Cn3nc4n(c3=O)[C@H](C(=O)N3CC(F)C3)CCC4)CC2)cc1` [Example 355, (5S)-5-[(3-Fluoroazetidin-1-yl)carbonyl]-2-{[1-(4-methylphenyl)cyclopropyl]methyl}-5,6,7,8-tetrahydro[1,2,4]triazolo[4,3-a]pyridin-3(2H)-one], 8.89.
Regarding `O=C([C@@H]1CCCc2nn(Cc3ccc(F)cc3Cl)c(=O)n21)N1CC(F)C1` [Example 476, (5S)-2-(2-Chloro-4-fluorobenzyl)-5-[(3-fluoroazetidin-1-yl)carbonyl]-5,6,7,8-tetrahydro[1,2,4]triazolo[4,3-a]pyridin-3(2H)-one], the negative logarithm of the IC50 (pIC50) was 9.11.
As to `O=C([C@@H]1CCCc2nn(Cc3cccc(C(F)(F)F)n3)c(=O)n21)N1C[C@@H](F)[C@@H](F)C1` [Example 371, (5S)-5-{[(3R,4S)-3,4-Difluoropyrrolidin-1-yl]carbonyl}-2-{[6-(trifluoromethyl)pyridin-2-yl]methyl}-5,6,7,8-tetrahydro[1,2,4]triazolo[4,3-a]pyridin-3(2H)-one], the pIC50 was 8.92.
On to `O=C(C1CCCc2nn(Cc3cccc(Cl)c3)c(=O)n21)N1CCC(F)(F)C1` (racemic) [Example 44, (5RS)-2-(3-Chlorobenzyl)-5-[(3,3-difluoropyrrolidin-1-yl)carbonyl]-5,6,7,8-tetrahydro[1,2,4]triazolo[4,3-a]pyridin-3(2H)-one], for which the negative-log IC50 (pIC50) was 8.68.
Take `O=C([C@@H]1CCCc2nn(Cc3ccc(C(F)(F)F)c(Cl)c3)c(=O)n21)N1CC(F)C1` [Example 459, (5S)-2-[3-Chloro-4-(trifluoromethyl)benzyl]-5-[(3-fluoroazetidin-1-yl)carbonyl]-5,6,7,8-tetrahydro[1,2,4]triazolo[4,3-a]pyridin-3(2H)-one]: the negative-log IC50 (pIC50) was 9.70.
In the case of `Cc1ccc(Cn2nc3n(c2=O)C(C(=O)N2CC[C@H](O)C2)CCC3)cc1` (single isomer, unassigned) [Example 116] it was 8.52.
For `CC1Cc2nn(Cc3ccc(C(F)(F)F)nc3)c(=O)n2C(C(=O)N2CC[C@H](F)C2)C1` (mixture of isomers) [Example 136, (5RS,7RS)-5-{[(3S)-3-Fluoropyrrolidin-1-yl]carbonyl}-7-methyl-2-{[6-(trifluoromethyl)pyridin-3-yl]methyl}-5,6,7,8-tetrahydro[1,2,4]triazolo[4,3-a]pyridin-3(2H)-one] the value was 8.93; for `Cc1ccc(Cn2nc3n(c2=O)C(C(=O)N2CCOCC2)CCC3)cc1` (racemic) [Example 159, (5RS)-2-(4-Methylbenzyl)-5-(morpholin-4-ylcarbonyl)-5,6,7,8-tetrahydro[1,2,4]triazolo[4,3-a]pyridin-3(2H)-one], 7.80; for `Cc1ccc(Cn2nc3n(c2=O)C(C(=O)N2C[C@@H]4[C@H](C2)C4(F)F)CCC3)cc1` (mixture of isomers) [Example 117, (5RS)-5-{[(cis)-6,6-Difluoro-3-azabicyclo[3.1.0]hex-3-yl]carbonyl}-2-(4-methylbenzyl)-5,6,7,8-tetrahydro[1,2,4]triazolo[4,3-a]pyridin-3(2H)-one], 8.50.
Regarding `O=C([C@@H]1CCCc2nn(Cc3ccc(C(F)(F)F)nc3)c(=O)n21)N1CC(O)C1` [Example 428, (5S)-5-[(3-Hydroxyazetidin-1-yl)carbonyl]-2-{[6-(trifluoromethyl)pyridin-3-yl]methyl}-5,6,7,8-tetrahydro[1,2,4]triazolo[4,3-a]pyridin-3(2H)-one], the negative-log IC50 (pIC50) is 7.28.
For `Cc1ccc(Cn2nc3n(c2=O)C(C(=O)N2CCCC2)CC(C(F)(F)F)C3)cc1` (single isomer, unassigned) [Example 225, (5RS,7RS)-2-(4-Methylbenzyl)-5-(pyrrolidin-1-ylcarbonyl)-7-(trifluoromethyl)-5,6,7,8-tetrahydro[1,2,4]triazolo[4,3-a]pyridin-3(2H)-one], the pIC50 was 9.64.
Regarding `Cc1ccc(Cn2nc3n(c2=O)[C@H](C(=O)N2CCC[C@H]2C(=O)CO)CCC3)cc1` [Example 190, (5S)-5-{[(2S)-2-Glycoloylpyrrolidin-1-yl]carbonyl}-2-(4-methylbenzyl)-5,6,7,8-tetrahydro[1,2,4]triazolo[4,3-a]pyridin-3(2H)-one], the pIC50 was 9.89.
In the case of `O=C(C1CCCc2nn(Cc3cccc(C(F)(F)F)c3F)c(=O)n21)N1CCCC1` (racemic) [Example 71] it was 9.15; in that of `O=C([C@@H]1CCCc2nn(Cc3ccc(Cl)c(F)c3)c(=O)n21)N1C[C@@H](F)[C@@H](F)C1` [Example 462, (5S)-2-(4-Chloro-3-fluorobenzyl)-5-{[(3R,4S)-3,4-difluoropyrrolidin-1-yl]carbonyl}-5,6,7,8-tetrahydro[1,2,4]triazolo[4,3-a]pyridin-3(2H)-one], 9.55; in that of `COc1ccc(C2(Cn3nc4n(c3=O)[C@H](C(=O)N3CC[C@H](F)C3)CCC4)CC2)cc1` [Example 528, (5S)-5-{[(3S)-3-Fluoropyrrolidin-1-yl]carbonyl}-2-{[1-(4-methoxyphenyl)cyclopropyl]methyl}-5,6,7,8-tetrahydro[1,2,4]triazolo[4,3-a]pyridin-3(2H)-one], 9.14.
In the case of `Cc1ccc(Cn2nc3n(c2=O)[C@H](C(=O)N2CCC[C@H]2C#N)CCC3)cc1` [Example 109, (2S)-1-{[(5S)-2-(4-Methylbenzyl)-3-oxo-2,3,5,6,7,8-hexahydro[1,2,4]triazolo[4,3-a]pyridin-5-yl]carbonyl}pyrrolidine-2-carbonitrile] it was 9.68.
For `O=C([C@@H]1CCCc2nn(Cc3ncccc3Cl)c(=O)n21)N1CC(F)(F)C1` [Example 394, (5S)-2-[(3-Chloropyridin-2-yl)methyl]-5-[(3,3-difluoroazetidin-1-yl)carbonyl]-5,6,7,8-tetrahydro[1,2,4]triazolo[4,3-a]pyridin-3(2H)-one] the value was 7.55; for `O=C(C1CC(C(F)(F)F)Cc2nn(Cc3ccc(Cl)nc3)c(=O)n21)N1CC[C@H](F)C1` (mixture of isomers) [Example 242, (5RS,7RS)-2-[(6-Chloropyridin-3-yl)methyl]-5-{[(3S)-3-fluoropyrrolidin-1-yl]carbonyl}-7-(trifluoromethyl)-5,6,7,8-tetrahydro[1,2,4]triazolo[4,3-a]pyridin-3(2H)-one], 8.70.
Consider `O=C(C1C(C(F)(F)F)CCc2nn(Cc3ncc(Cl)cc3F)c(=O)n21)N1CCC(F)(F)C1` (single isomer, unassigned) [Example 297, (5RS,6RS)-2-[(5-Chloro-3-fluoropyridin-2-yl)methyl]-5-[(3,3-difluoropyrrolidin-1-yl)carbonyl]-6-(trifluoromethyl)-5,6,7,8-tetrahydro[1,2,4]triazolo[4,3-a]pyridin-3(2H)-one], for which the negative logarithm of the IC50 (pIC50) is 6.94.
